{"source": "patent US20230331739A1", "about": "“INDOLO HEPTAMYL OXIME ANALOG CRYSTAL AS PARP INHIBITOR AND METHOD FOR PREPARING SAME” (CHIA TAI TIANQING PHARMACEUTICAL GROUP CO., LTD., priority 2020, published 2023)", "biological_target": "CYP2D6 (Homo sapiens (Human), UniProt P10635)", "sequence (P10635 whole entry)": "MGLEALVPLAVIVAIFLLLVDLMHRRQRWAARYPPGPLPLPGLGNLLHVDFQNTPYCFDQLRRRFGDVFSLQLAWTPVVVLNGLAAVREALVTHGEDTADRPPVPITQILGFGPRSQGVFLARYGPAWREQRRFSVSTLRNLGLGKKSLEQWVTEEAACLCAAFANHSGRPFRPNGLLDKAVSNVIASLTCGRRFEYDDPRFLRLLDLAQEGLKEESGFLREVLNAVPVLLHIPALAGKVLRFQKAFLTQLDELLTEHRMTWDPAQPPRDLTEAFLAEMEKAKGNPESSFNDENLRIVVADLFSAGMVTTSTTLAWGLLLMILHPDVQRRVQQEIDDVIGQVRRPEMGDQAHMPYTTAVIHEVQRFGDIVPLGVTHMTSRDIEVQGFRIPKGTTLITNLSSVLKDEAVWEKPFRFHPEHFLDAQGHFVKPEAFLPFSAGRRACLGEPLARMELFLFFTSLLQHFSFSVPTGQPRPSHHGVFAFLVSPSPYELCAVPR", "experiment": "Inhibition against cytochrome P450 isoenzymes, CYP2D6", "assay_type": "in vitro ADME", "details": "human liver microsomes", "procedure": "The inhibition of the test compound against different subtypes of the human cytochrome P450 isoenzyme was determined. The test compound, a standard inhibitor (100×final concentration) and a mixed substrate working solution were prepared; the microsomes frozen in a refrigerator at −80° C. were taken out and thawed. […]", "data": [{"smiles": "C[C@]1(c2ccc(-c3[nH]c4cc(F)cc5c4c3CONC5=O)cc2)CCCN1", "note": "[Compound 1]", "values": [{"measurement": "IC50", "value": 11.6, "unit": "µM"}]}]}
